Results reported in US20240391889A1, “ANTIMICROBIAL COMPOUNDS AND THE METHODS OF USE” (priority 2021, published 2024).
In brackets after ≈: the same amount, converted by molar mass. Like-named read-outs stand apart in the source and are kept apart here. Numbered stars: 1 amine (or outer) side, 2 acyl side, 3 side chain; on linkers, the order of the positions; unused ones are H or OH. Square brackets hold non-standard residues; d marks the D form. Peptide text beside a SMILES is read from it. * marks the point of attachment. N(1S-cyclohexylethyl)Gly = C[C@H](NCC(=O)O)C1CCCCC1; N(2-thienylmethyl)Gly = O=C(O)CNCc1cccs1; NCyclohexylmethylGly = O=C(O)CNCC1CCCCC1; N(tridecyl)Gly = CCCCCCCCCCCCCNCC(=O)O; X2 = O=C(CN(c1cccc2ccccc12)[*:1])[*:2]; N(4-MeOBn)Gly = COc1ccc(CNCC(=O)O)cc1; N(4-F-Bzl)Gly = O=C(O)CNCc1ccc(F)cc1; X1 = CC(c1ccccc1)N(CC(=O)[*:2])[*:1]; Gly(N-2-aminoethyl) = NCCNCC(=O)O; Myristoyl = CCCCCCCCCCCCCC(=O)*; NFurfurylGly = O=C(O)CNCc1ccco1; Gly(N(CH2)3NH2) = NCCCNCC(=O)O; Nphe = O=C(O)CNCc1ccccc1; NPrGly = CCCNCC(=O)O; Nlys = NCCCCNCC(=O)O

Key:
[1] = tested on: C. neoformans; type: cell-based, Cryptococcus neoformans; conditions: 72 h
Text: (§1) This screening led to the discovery of RMG9-11 (FIG. 2C). The minimum inhibitory concentration (MIC) of resynthesized RMG9-11 was initially determined against C. albicans, C. neoformans, and the ESKAPE bacteria via CSLI guidelines (CLSI. Methods for Dilution Antimicrobial Susceptibility Tests for Bacteria That Grow Aerobically, 11th Edition. Clinical and Laboratory Standards Institute (2018); CLSI. Reference method for broth dilution antifungal susceptibility testing of yeasts; approved standard-third edition; CLSI document M27-A3. Clinical and Laboratory Standards Institute (2008)). […] C. albicans clinical isolates include a reference strain (M1), fluconazole susceptible strains (M4 and M6), and fluconazole resistant strains (M2, M3, M5, and M7). ATCC 64124 is multidrug resistant C. albicans strain that is resistant to amphotericin B, fluconazole, caspofungin, and flucytosine. All MICs were performed under CSLI guidelines in triplicate on at least three different days.
(§2) The minimum inhibitory concentration (MIC) of peptoids against fungal pathogens C. albicans and C. neoformans was determined following CLSI guidelines (Reference method for broth dilution antifungal susceptibility testing of yeasts; approved standard-third edition; CLSI document M27-A3.” CLSI. 2008.). Colonies were transferred from a streaked YPD plate to 0.85% saline to reach an OD530 between 0.18 and 0.25. This inoculant was diluted 1:100 into RPMI-MOPS and then further diluted 1:20 into RPMI-MOPS. 198 μL of inoculant was seeded into each well of a 96 well black-walled plate. 2-fold serial dilutions of 100× peptoid solutions were prepared in water and 2 μL of peptoid were added to each well in triplicate. […] MIC was defined as the lowest concentration of compound preventing fungal growth. This assay was repeated 3 times on separate days with each compound.

[2] = in vitro; type: cell-based; conditions: human, HepG2 hepatocellular carcinoma cells
Experimental: (§3) The mammalian cell lines that were tested (HepG2, 3T3, and HaCat) were incubated with RMG9-11 for 72 hours and cell viability was determined via mitochondrial activity using an MTT reduction assay where viable cells reduce MTT to formazan. Toxicity is reported as the concentration of the peptoid that results in a 50% reduction in viable cells, termed toxicity dose 50% or TD50. […] SR is defined as the TD50 divided by MIC and provides a measure of the therapeutic window for a compound. Typically for most lead compounds that would continue through development and optimization, a SR of 10 is preferred while an SR of 100 is more desirable for a compound moving into preclinical animal model evaluation.
(§4) Hepatocellular carcinoma (HepG2), mouse fibroblast (3T3), and human keratinocyte (HaCat) cells were cultured in Dulbeco modified eagle media (DMEM) containing 10% fetal bovine serum (FBS) and 1% penicillin, streptomycin, and glutamine (PSG) at 37° C. and 5% CO2. Cells were collected and adjusted to […] to 4×10^5 cells/mL in phenol-red free DMEM and plated (100 μL) 96 well plates. 2-fold serial dilutions of 10× peptoid (11.1 μL) were added to each well in triplicate. Water (vehicle) was used as a negative control. Plates were incubated at 37° C. in 5% CO2 for 72 hours. Thiazolyl blue tetrazolium bromide (MTT) was added to each well (5 mg/mL; 20 μL) and incubated for 3 hours. Media was removed, DMSO (100 μL) was added, and plates were incubated at 37° C. for 10 minutes. Plates were read on a SPECTRAMAX M5 plate reader (Abs. 570 nm). The concentration of compound resulting in a 50% reduction in growth compared to control (toxicity dose 50%; TD50) was determined using GRAFIT. This procedure was repeated three times on separate days.

[3] = tested on: HepG2 liver cells; assay: in vitro; type: cell-based
Experimental: as §3, §4

[4] = tested on: C. albicans; type: cell-based, Candida albicans; conditions: 24 h
Text: as §1, §2

[5] = Percent acetonitrile at time of elution from RP-HPLC (hydrophobicity); type: physicochemical
Experimental: Round 1 of the iterative SAR explored two miscellaneous derivatives along with derivatives that explored substitutions in position 3 (R^2; FIG. 6). Structures were confirmed by ESI-MS and hydrophobicity was determined by the percent acetonitrile at time of elution during RP-HPLC purification and using MarvinSketch to calculate the distribution coefficient at pH 7.4 (Table 5). Only one derivative of position 1 (group T of Formula 1) was explored, substituting a 14-carbon fatty acid (myristic acid) tail in place of the tridecyl tail (911-M1). This was tested because this fatty acid was previously shown to improve activity with C. albicans while reducing toxicity (Green R M, Bicker R. L. Evaluation of peptoid mimics of short, lipophilic peptide antimicrobials. Int J Antimicrob Agents. 2020; 56(2):106048. doi:10.1016/j.ijantimicag.2020.106048). The second miscellaneous derivative tested substituting the propyl group (Nnva) in position 2 (R^1) with a cationic group in an effort to reduce toxicity without effecting antifungal activity (911-M2). […]

Compound | MIC C. neoformans [1] | MIC C. albicans [4] | MIC C. neoformans ([1]; listed as 911-10) | % ACN [5] | CC50 at 72 h [2] | HepG2 TD50 [3] | cytotoxicity compared to RMG9-11 [3] | toxicity compared to 911-M1 [3]
CCCCCCCCCCCCCC(=O)NCC(=O)N(CCC)CC(=O)N(CC(=O)N(CCCCN)CC(=O)N(CC(=O)N(CC(=O)N(CCCN)CC(N)=O)Cc1ccccc1)Cc1ccco1)C(C)c1ccccc1 (stereo not drawn) [Compound 911-M1] (Myristoyl-G[NPrGly][X1][Nlys][NFurfurylGly][Nphe][Gly(N(CH2)3NH2)]-NH2) | 3.13 µg/mL (≈ 2.92 µM) | 3.13 to 6.25 µg/mL | – | – | 144 ± 22.6 µg/mL (≈ 135 µM) | 144.5 ± 22.6 µg/mL | decreased cytotoxicity | –
CCCCCCCCCCCCCNCC(=O)N(CCN)CC(=O)N(CC(=O)N(CCCCN)CC(=O)N(CC(=O)N(CC(=O)N(CCCN)CC(N)=O)Cc1ccccc1)Cc1ccco1)C(C)c1ccccc1 (stereo not drawn) [Compound 911-M2] (H-[N(tridecyl)Gly][Gly(N-2-aminoethyl)][X1][Nlys][NFurfurylGly][Nphe][Gly(N(CH2)3NH2)]-NH2) | 3.13 µg/mL (≈ 3 µM) | 6.25 to 12.5 µg/mL | – | – | 177 ± 20.5 µg/mL (≈ 170 µM) | – | dramatic decrease in cytotoxicity | –
CCCCCCCCCCCCCNCC(=O)N(CCC)CC(=O)N(CC(=O)N(CCCCN)CC(=O)N(CC(=O)N(CC(=O)N(CCCN)CC(N)=O)Cc1ccccc1)Cc1ccco1)CC1CCCCC1 [Compound 911-M10] (H-[N(tridecyl)Gly][NPrGly][NCyclohexylmethylGly][Nlys][NFurfurylGly][Nphe][Gly(N(CH2)3NH2)]-NH2; N-terminus assumed) | 0.78 to 1.56 µg/mL | 6.25 µg/mL (≈ 6.04 µM) | sub-one | 72.3% | 97.8 ± 18.3 µg/mL (≈ 94.5 µM) | – | – | –
CCCCCCCCCCCCCC(=O)NCC(=O)N(CCC)CC(=O)N(CC(=O)N(CCCCN)CC(=O)N(CC(=O)N(CC(=O)N(CCCN)CC(N)=O)c1cccc2ccccc12)Cc1ccco1)C(C)c1ccccc1 (stereo not drawn) [Compound 911-M15] (Myristoyl-G[NPrGly][X1][Nlys][NFurfurylGly][X2][Gly(N(CH2)3NH2)]-NH2) | 3.13 to 6.25 µg/mL | 6.25 µg/mL (≈ 5.64 µM) | – | – | 122 ± 21.3 µg/mL (≈ 111 µM) | – | – | –
CCCCCCCCCCCCCC(=O)NCC(=O)N(CCC)CC(=O)N(CC(=O)N(CCCCN)CC(=O)N(CC(=O)N(CC(=O)N(CCCN)CC(N)=O)Cc1ccc(OC)cc1)Cc1ccco1)C(C)c1ccccc1 (stereo not drawn) [Compound 911-M16] (Myristoyl-G[NPrGly][X1][Nlys][NFurfurylGly][N(4-MeOBn)Gly][Gly(N(CH2)3NH2)]-NH2) | 3.13 to 6.25 µg/mL | 6.25 µg/mL (≈ 5.67 µM) | – | – | 136 ± 39.6 µg/mL (≈ 123 µM) | – | – | –
CCCCCCCCCCCCCC(=O)NCC(=O)N(CCC)CC(=O)N(CC(=O)N(CCCCN)CC(=O)N(CC(=O)N(CC(=O)N(CCCN)CC(N)=O)Cc1ccco1)Cc1ccco1)C(C)c1ccccc1 (stereo not drawn) [Compound 911-M18] (Myristoyl-G[NPrGly][X1][Nlys][NFurfurylGly][NFurfurylGly][Gly(N(CH2)3NH2)]-NH2) | 6.25 µg/mL (≈ 5.89 µM) | 6.25 µg/mL (≈ 5.89 µM) | – | – | 152 ± 8.04 µg/mL (≈ 143 µM) | 151.96 ± 8.04 µg/mL | – | slightly though not significantly better
CCCCCCCCCCCCCC(=O)NCC(=O)N(CCC)CC(=O)N(CC(=O)N(CCCCN)CC(=O)N(CC(=O)N(CC(=O)N(CCCN)CC(N)=O)Cc1cccs1)Cc1ccco1)C(C)c1ccccc1 (stereo not drawn) [Compound 911-M21] (Myristoyl-G[NPrGly][X1][Nlys][NFurfurylGly][N(2-thienylmethyl)Gly][Gly(N(CH2)3NH2)]-NH2) | 3.13 to 6.25 µg/mL | 6.25 µg/mL (≈ 5.8 µM) | – | – | 135 ± 52.1 µg/mL (≈ 125 µM) | – | – | –

The next lines start with results.

MIC C. neoformans [1] | MIC C. albicans [4] | MIC C. neoformans ([1]; listed as 911-10) | % ACN [5] | Compound | CC50 at 72 h [2] | HepG2 TD50 [3] | cytotoxicity compared to RMG9-11 [3] | toxicity compared to 911-M1 [3]
3.13 to 6.25 µg/mL | 6.25 µg/mL (≈ 5.73 µM) | – | – | CCCCCCCCCCCCCC(=O)NCC(=O)N(CCC)CC(=O)N(CC(=O)N(CCCCN)CC(=O)N(CC(=O)N(CC(=O)N(CCCN)CC(N)=O)[C@@H](C)C1CCCCC1)Cc1ccco1)C(C)c1ccccc1 (stereo partly drawn) [Compound 911-M17] (Myristoyl-G[NPrGly][X1][Nlys][NFurfurylGly][N(1S-cyclohexylethyl)Gly][Gly(N(CH2)3NH2)]-NH2) | 81.6 ± 5.97 µg/mL (≈ 74.8 µM) | – | – | markedly more toxic
3.13 µg/mL (≈ 2.87 µM) | 6.25 µg/mL (≈ 5.74 µM) | – | – | CCCCCCCCCCCCCC(=O)NCC(=O)N(CCC)CC(=O)N(CC(=O)N(CCCCN)CC(=O)N(CC(=O)N(CC(=O)N(CCCN)CC(N)=O)Cc1ccc(F)cc1)Cc1ccco1)C(C)c1ccccc1 (stereo not drawn) [Compound 911-M19] (Myristoyl-G[NPrGly][X1][Nlys][NFurfurylGly][N(4-F-Bzl)Gly][Gly(N(CH2)3NH2)]-NH2) | 106 ± 34.8 µg/mL (≈ 97.6 µM) | – | – | –
3.13 µg/mL (≈ 2.9 µM) | 6.25 µg/mL (≈ 5.8 µM) | – | – | CCCCCCCCCCCCCC(=O)NCC(=O)N(CCC)CC(=O)N(CC(=O)N(CCCCN)CC(=O)N(CC(=O)N(CC(=O)N(CCCN)CC(N)=O)CC1CCCCC1)Cc1ccco1)C(C)c1ccccc1 (stereo not drawn) [Compound 911-M20] (Myristoyl-G[NPrGly][X1][Nlys][NFurfurylGly][NCyclohexylmethylGly][Gly(N(CH2)3NH2)]-NH2) | 79.6 ± 5.12 µg/mL (≈ 73.9 µM) | – | – | markedly more toxic
3.13 µg/mL (≈ 2.88 µM) | 6.25 µg/mL (≈ 5.76 µM) | – | – | CCCCCCCCCCCCCC(=O)NCC(=O)N(CCC)CC(=O)N(CC(=O)N(CCCCN)CC(=O)N(CC(=O)N(CC(=O)N(CCCN)CC(N)=O)C(C)c1ccccc1)Cc1ccco1)C(C)c1ccccc1 (stereo not drawn) [Compound 911-M22] (Myristoyl-G[NPrGly][X1][Nlys][NFurfurylGly][X1][Gly(N(CH2)3NH2)]-NH2) | 113 ± 41.9 µg/mL (≈ 104 µM) | – | – | –
